In PubChem BioAssay (NCI):
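48-hour exposure; five concentrations; linearly interpolated endpoints. GI50: concentration for 50% inhibition of growth. At the TGI there is no net growth.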

Key:
Assay in all cases: NCI anticancer screen, dose series, 48 h
[1] = system: A549 NSCLC
[2] = system: HL-60(TB) leukemia
[3] = system: HT29 colon
[4] = system: IGROV1 ovarian
[5] = system: OVCAR-3 ovarian
[6] = system: SNB-75 CNS
[7] = system: SR leukemia
[8] = system: UO-31 renal
[9] = system: DLD-1 colon
[10] = system: DMS 273 small cell lung

| SMILES | GI50 [1] [µM] | TGI [1] [µM] | GI50 [2] [nM] | TGI [2] [µM] | GI50 [3] [nM] | TGI [3] [µM] | GI50 [4] [µM] | TGI [4] [µM] | GI50 [5] [nM] | TGI [5] [µM] | GI50 [6] [nM] | TGI [6] [µM] | GI50 [7] [nM] | TGI [7] [µM] | GI50 [8] [µM] | TGI [8] [µM] | TGI [9] [µM] | TGI [10] [nM] | GI50 [9] [nM] | GI50 [10] [nM] |
| --- | --- | --- | --- | --- | --- | --- | --- | --- | --- | --- | --- | --- | --- | --- | --- | --- | --- | --- | --- | --- |
| C=C(C)[C@@H]1CC[C@]2(C(=O)NCCNCCNCCN)CC[C@]3(C)[C@H](CC[C@@H]4[C@@]5(C)CCC(=O)C(C)(C)[C@@H]5CC[C@]43C)[C@@H]12 | 7.69 | 15.9 | 8880 | 19 | 7170 | 14.6 | 6.42 | 14.4 | 7650 | 15 | 6250 | 14.1 | 5910 | 20.1 | 6.85 | 14.5 | – | – | – | – |
| NC(=O)c1c2c(cc3c(=O)c4ccccc4[nH]c13)CCCC2 | – | > 100 | – | > 100 | – | > 100 | – | > 100 | – | > 100 | – | > 75 | – | > 100 | – | > 100 | > 100 | > 100000 | – | – |
| COC(=O)[C@@H]1CCCN1C(=O)[C@H]1CCCN1C(=O)[C@@H](Cc1c[nH]c2ccccc12)NC(=S)Nc1cc(C(F)(F)F)cc(C(F)(F)F)c1 | 2.19 | 5.54 | 2700 | 6.35 | 1970 | 3.84 | 2.59 | 6.73 | 2480 | 5.71 | 1400 | 6.75 | 2480 | 6.3 | 3.23 | 11.6 | – | – | – | – |
| CCC[CH2][Sn]1([CH2]CCC)[O]C(=O)CN=Cc2ccccc2[O]1 | 1.81 | 3.55 | – | – | 1080 | 2.34 | 2.27 | > 100 | 545 | 1.82 | 282 | 0.849 | – | – | 0.512 | 1.77 | > 100 | 2120 | 568 | 864 |
| CCOC(=O)C1=C(c2ccccc2)N(c2ccc(OC)cc2)[C@]2(C#N)C(O)=C(Cl)C(Cl)=C(O)[C@]12C#N | 69.1 | > 100 | 24500 | 50.1 | 34800 | > 100 | 21.7 | 48.6 | 22700 | 53.2 | 18400 | 36.7 | 11500 | 28.8 | 24.6 | 68 | – | – | – | – |
| Cc1ccc(Oc2nc3ccccc3cc2-c2nnc(Cn3c(COc4ccccc4)nc4ccccc43)o2)cc1 | 8.5 | 24.2 | 2850 | 7.88 | 2020 | 4.43 | 3.25 | 22 | 2410 | 6.65 | 2160 | 9.74 | 734 | 8.53 | 1.19 | 10.2 | – | – | – | – |
| COc1ccc(-n2c(C)nc3c(c(C)nn3-c3ccccc3)c2=O)cc1 | 0.107 | > 100 | 35.3 | 0.22 | 46.7 | > 31.9 | 0.0701 | > 100 | 41.4 | – | 27.6 | > 100 | 39.1 | > 58.7 | 0.261 | > 43.4 | – | – | – | – |
| CO/N=C(/COc1c(-c2ccccc2)oc2ccccc2c1=O)c1ccc(F)cc1 | 57.4 | > 100 | > 100000 | > 100 | > 100000 | > 100 | 22.1 | 90.7 | 56700 | > 100 | 28000 | 81.1 | 22000 | > 100 | > 100 | > 100 | – | – | – | – |
| CC1(C)Cc2c(Br)c(Br)c(Br)c(OCC(O)CN3CCOCC3)c2O1 (stereo unspecified) | 12.9 | 28.4 | 3720 | 17.9 | 3730 | 19 | 14.1 | 28.4 | 12300 | 28.5 | 12600 | 38.1 | 5140 | 18.4 | 12.8 | 27.4 | – | – | – | – |
| COc1ccc(-c2ccccc2)cc1-c1c(Nc2cc(Cl)cc(Cl)c2O)c(=O)c1=O | 1.65 | > 50 | 1110 | 2.54 | 1920 | > 50 | 1.76 | > 50 | 1280 | 3.88 | 1030 | 3.61 | 1610 | 21.8 | 1.25 | > 50 | – | – | – | – |
| COc1ccc2c(c1)C(=O)c1c-2n(CCCN2CCOCC2)c(=O)c2cc([N+](=O)[O-])ccc12 | < 0.01 | 3.01 | < 19.3 | 4.03 | < 10 | > 100 | < 0.01 | 25.7 | < 11.3 | 1.49 | < 10 | – | < 10 | – | < 0.01 | 0.0572 | – | – | – | – |
| Cc1ccc(C[P+](c2ccccc2)(c2ccccc2)c2ccccc2)cc1 | 0.684 | – | 455 | 3.36 | 427 | > 41.6 | 2.33 | > 100 | 638 | 5.19 | 1550 | 18.8 | 1040 | – | 6.08 | 39.4 | – | – | – | – |
| COc1ccc(C(=O)CC(c2ccc(OC)c(OC)c2)c2c(O)c3ccccc3oc2=O)cc1OC (stereo unspecified) | – | > 100 | – | > 100 | – | > 100 | – | > 100 | – | > 100 | – | > 100 | – | > 100 | – | > 100 | – | – | – | – |
| COc1cc(/C=C2\C(=O)Nc3ccccc32)cc(OC)c1OC | 20.3 | > 100 | 8150 | > 100 | 19800 | > 100 | 20 | > 100 | 25400 | > 100 | 15000 | 58.7 | 3830 | > 100 | 30.4 | > 100 | – | – | – | – |
| NC1=NC(c2ccc(F)cc2)C2=C(N1)c1ccc3ccccc3c1OCC2 (stereo unspecified) | 18.7 | > 100 | > 100000 | > 100 | 4960 | > 100 | > 100 | > 100 | 2730 | > 100 | 16500 | 70.5 | 2370 | > 100 | > 100 | > 100 | – | – | – | – |
